{"source": "patent US6087358A", "about": "(priority 1997, dated 2000)", "system": "Cryptosporidium parvum", "assay": "Inhibition of Cryptosporidium parvum (ELISA, infected HCT-8 monolayers)", "format": "cell-based", "procedure": "Susceptibility testing against Cryptosporidium was performed according to published procedures (K. Woods, M. Nesterenko, S. Upton, \"Development of a microtiter ELISA to quantify development of Cryptosporidium parvum in vitro,\" FEMS Microbiology Letters, 128:89-94 (1995).\nCompounds were solubilized to a concentration of 100 mg/mL in 100% DMSO. DMSO solutions of test compounds were added to the test wells of a microplate at a volume that produced a final concentration of DMSO of 0.2%. Monolayers of human ileocecal adenocarcinoma cells (HCT-8) were prepared by growth in RPMI 1640 medium in 96-Well tissue culture trays for 24 h. Oocysts of C. parvum were allowed to excyst in 10% bleach for 10 min prior to use. Monolayers were then infected with 2-3×10^4 oocysts/well and incubated in the presence or absence of compound for 48 h at 35° C. in 5% CO2 and 95% humidity. Background consisted of wells containing killed oocysts (freeze thaw cycle following 30 sec exposure to liquid nitrogen). Growth control wells were infected with 2-3×10^4 oocysts/well in the absence of test compounds. At the end of incubation, wells were washed and fixed by adding 100 uL of 4% formalin in phosphate buffered saline (pH 7.3) per well for 2 h. After blocking with 1% bovine serum albumin, and 0.002% Tween 20, 50 uL of rat anti-Cryptosporidium membrane protein antiserum was added. After 30 min, wells were washed in PBS and 50 uL of secondary antibody (goat anti-rat antibody conjugated with horseradish peroxidase) was added. After 20-30 min, wells were washed again in PBS and 50 uL of 3,3',5,5'-tetramethylbenzidine solution was added. Plates were allowed to develop for 10-15 min and the optical density was read at 630 nm. Percent inhibition was calculated by comparing the optical density of the drug treated group to that of the untreated control.", "data": [{"smiles": "O=[N+]([O-])c1cn2c(n1)OC[C@@H](OCc1ccc(OC(F)(F)F)cc1)C2", "note": "[PA-824, 3S 4-(Trifluromethoxy)benzyloxy-6-nitro-2H-3,4-dihydro-[2-1b]imidazopyran]", "values": [{"measurement": "dose-related response", "setting": "C. parvum growth", "value": "A clear dose-related response"}, {"measurement": "IC50", "setting": "Cryptosporidium parvum, HCT-8", "value": 25, "unit": "µg/mL"}, {"measurement": "inhibition at 5 µg/mL", "setting": "Cryptosporidium parvum, HCT-8, 5 μg/mL, 48 h, read-out: Percent Inhibition of C. parvum", "value": 3.1, "unit": "%"}, {"measurement": "inhibition at 10 µg/mL", "setting": "Cryptosporidium parvum, HCT-8, 10 μg/mL, 48 h, read-out: Percent Inhibition of C. parvum", "value": 17, "unit": "%"}, {"measurement": "inhibition at 20 µg/mL", "setting": "Cryptosporidium parvum, HCT-8, 20 μg/mL, 48 h, read-out: Percent Inhibition of C. parvum", "value": 40, "unit": "%"}, {"measurement": "inhibition at 25 µg/mL", "setting": "Cryptosporidium parvum, HCT-8, 25 μg/mL, 48 h, read-out: Percent Inhibition of C. parvum", "value": 52, "unit": "%"}, {"measurement": "inhibition at 50 µg/mL", "setting": "Cryptosporidium parvum, HCT-8, 50 μg/mL, 48 h, read-out: Percent Inhibition of C. parvum", "value": 93, "unit": "%"}, {"measurement": "inhibition at 100 µg/mL", "setting": "Cryptosporidium parvum, HCT-8, 100 μg/mL, 48 h, read-out: Percent Inhibition of C. parvum", "value": 87, "unit": "%"}]}]}
